Test results from US20090203585A1, “CAPREOMYCIN DERIVATIVES AND THEIR USE AS ANTIBACTERIALS” (priority 2006, published 2009).

Assays:
[1] = test system: MRSA (Methicillin resistant Staphylococcus aureus, ATCC33591); assay: MIC determination in MRSA; format: cell-based
Procedure: Cation Adjusted Mueller Hinton Broth (Teknova #M5860); MRSA (Methicillin resistant Staphylococcus aureus, ATCC33591). Test compounds: all compounds were dissolved in PBS at 10 mg/mL and stored at −20° C.
The method used for determination of MIC's follows the procedure described by the Clinical Laboratory Standards Institute (CLSI). A standardized inoculum of MRSA was prepared per CLSI methods yielding a final cell concentration of 5×10 (5) CFU/mL. 10× compound dilutions were prepared by performing 2 fold serial dilutions in Cation Adjusted Mueller Hinton Broth. The starting and ending concentrations were 640 μg/mL and 1.25 μg/mL, respectively for final assay concentrations of 64 µg/mL and 0.125 μg/mL. 10 μL of the 10× compound dilutions were added to 90 μL of the MRSA cell suspension in microplate wells. Plates were incubated in a 35° C. incubator for approximately 20 hours.

Clostridium difficile = assay: Activity against Clostridium difficile; format: cell-based; conditions: relative to corresponding capreomycin IB phenyl urea analog
[2] = test system: other genera of bacteria (Gram-positive, Gram-negative); conditions: cited from earlier work
mycobacteria = conditions: cited from earlier work

Molecule	activity against MRSA [1]	fold more active against Clostridium difficile than the corresponding capreomycin IB phenyl urea analogs (Clostridium difficile) [fold]	activity against other genera of bacteria [2]	efficacy against most Gram-positive bacteria (Staphylococcus) or Gram-negative bacteria (Escherichia coli) [2]	activity against mycobacteria (mycobacteria)
C[C@@H]1NC(=O)[C@@H](N)CNC(=O)[C@H](C2CCNC(=N)N2)NC(=O)/C(=C/NC(=O)Nc2cccc(-c3ccccc3)c2)NC(=O)[C@H](CN)NC1=O (some centres unmarked) [Compound 73]	active	4	–	–	–
Capreomycin	–	–	little activity	not efficacious	potent activity
